Patent publication US20210369677A1, “SMALL MOLECULE ACTIVATORS OF POLYCYSTIN-2 (PKD2) AND USES THEREOF” (Northwestern University, priority 2020, published 2021)

Molecular target: T1, polycystin-2 (Homo sapiens, UniProt Q13563)
T1 construct: expressed in transfected cells
T1 sequence (Q13563 1-968): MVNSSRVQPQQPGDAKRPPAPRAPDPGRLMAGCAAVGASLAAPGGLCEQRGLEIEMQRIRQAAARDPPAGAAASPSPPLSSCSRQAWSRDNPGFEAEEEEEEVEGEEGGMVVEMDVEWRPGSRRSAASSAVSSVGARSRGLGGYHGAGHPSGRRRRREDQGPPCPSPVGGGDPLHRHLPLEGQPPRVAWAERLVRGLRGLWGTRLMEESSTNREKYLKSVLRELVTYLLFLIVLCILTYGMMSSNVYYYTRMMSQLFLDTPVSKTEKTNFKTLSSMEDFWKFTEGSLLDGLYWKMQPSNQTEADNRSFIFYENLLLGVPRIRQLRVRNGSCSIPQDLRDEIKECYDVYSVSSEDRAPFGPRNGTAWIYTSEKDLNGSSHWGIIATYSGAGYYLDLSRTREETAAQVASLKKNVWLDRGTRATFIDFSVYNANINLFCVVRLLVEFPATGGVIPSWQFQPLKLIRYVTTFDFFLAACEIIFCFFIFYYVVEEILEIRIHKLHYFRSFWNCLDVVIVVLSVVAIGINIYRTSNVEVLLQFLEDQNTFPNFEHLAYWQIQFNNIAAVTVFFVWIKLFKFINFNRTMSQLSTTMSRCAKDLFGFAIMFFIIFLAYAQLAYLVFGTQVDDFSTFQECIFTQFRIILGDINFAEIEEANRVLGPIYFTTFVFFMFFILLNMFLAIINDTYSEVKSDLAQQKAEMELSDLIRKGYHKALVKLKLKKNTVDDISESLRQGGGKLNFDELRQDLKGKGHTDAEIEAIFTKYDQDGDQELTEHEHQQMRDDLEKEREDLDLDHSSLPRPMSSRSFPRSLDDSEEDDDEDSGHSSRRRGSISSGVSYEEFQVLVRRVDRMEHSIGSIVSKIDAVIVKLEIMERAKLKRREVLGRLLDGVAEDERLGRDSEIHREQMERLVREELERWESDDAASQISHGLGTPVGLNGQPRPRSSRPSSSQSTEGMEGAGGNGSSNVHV
Assay: Inside-out cilia patch of HEK cells, voltage dependent channel opening at low and high intraciliary Ca2+
Type: cell-based
Conditions: from low (100 nM) to high (100 μM) Ca2+, WT channels
Source text: To test whether calcium occupancy of the EF hand is responsible for CDM and CDD of human polycystin-2, we generated double alanine mutations at the −X ([…]) and −Z vertices (E774A) which abolished Ca^2+ affinity for the CTD fragment (FIG. 17B). We then expressed the −X-Z double mutation in PKD2-GFP in a PKD2^null HEK cell line, so that exogenous channels could be assayed without the contribution of endogenous PKD2 alleles, as previously described (Vien et al., 2020). The stably expressed human WT and −X-Z channels trafficked to the primary cilia, and glass electrodes with submicron apertures were fabricated to form high resistance electrical seals with the GFP-illuminated cilia membranes (FIG. 18A). […] These experiments were performed with only one channel present in the membrane, so that stochastic effects on single channel states could be determined. […]
Electrophysiology. The electrophysiologist was blinded by a third party in the laboratory, where test groups were assigned a letter to conceal the genetic identity of the cells being evaluated. […] Ciliary ion currents were recorded using borosilicate glass electrodes polished to resistances of 14-23 MΩ using the cilium patch method previously described (Vien et al., 2020). Single channel currents measured in the inside-out configuration were recorded in symmetrical sodium concentrations. […]

With `[Ca+2]` [Ca^2+, calcium] the “Shift in the voltage-dependence of half maximal open probability (V1/2)” value was −47 mV.
